# Measurements taken from the supplement of paper PMC9663587.
# Compound: C[C@@H]1COCCN1c1cc(C2([S@](C)(=N)=O)CC2)nc(-c2cc[nH]c3nccc2-3)n1 [AZD6738]
# 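Also: breast cancer and non-malignant breast epithelial cell lines, Deep Dye Drop or Dye Drop imaging, nine half-log doses, GR normalized to time-zero plates and DMSO-only controls.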
row,Cell Line,"GR50, 72 h"
1,EFM19,> 10 µM
2,EVSAT,> 10 µM
3,HCC38,2 µM
4,HCC70,1.84 µM
5,HCC202,8.72 µM
6,HCC1143,5.13 µM
7,HCC1395,1.81 µM
8,HCC1419,8.9 µM
9,HCC1806,1.1 µM
10,HCC1937,9.08 µM
11,HS578T,5.26 µM
12,HTERT_HME1,5.78 µM
13,MCF7,3.05 µM

# Compound: COc1cc2c(Oc3ccc4[nH]c(C)cc4c3F)ncnc2cc1OCCCN1CCCC1 [Cediranib/AZD2171]
row,Cell Line,"GR50, 72 h"
1,EFM19,> 10 µM
2,EVSAT,9.9 µM
3,HCC38,1.59 µM
4,HCC70,4.54 µM
5,HCC202,7.85 µM
6,HCC1143,3.73 µM
7,HCC1395,1.59 µM
8,HCC1419,5.06 µM
9,HCC1806,4.93 µM
10,HCC1937,8.4 µM
11,HS578T,0.551 µM
12,HTERT_HME1,7.57 µM
13,MCF7,5.7 µM

# Compound: C1=CC(=CC(=C1)N2C(=O)C=CC3=CN=C4C=CC(=CC4=C32)C5=CN=C(C=C5)N)C(F)(F)F [Torin2]
row,Cell Line,"GR50, 72 h"
1,EFM19,0.0114 µM
2,EVSAT,0.015 µM
3,HCC38,0.0105 µM
4,HCC70,0.00585 µM
5,HCC202,0.0137 µM
6,HCC1143,0.0447 µM
7,HCC1395,0.0146 µM
8,HCC1419,0.0055 µM
9,HCC1806,0.0358 µM
10,HCC1937,0.0934 µM
11,HS578T,0.0071 µM
12,HTERT_HME1,0.0253 µM
13,MCF7,0.00456 µM

# Compound: O=C(c1cc(Cc2n[nH]c(=O)c3ccccc23)ccc1F)N1CCN(C(=O)C2CC2)CC1 [Olaparib/AZD2281]
row,Cell Line,"GR50, 72 h"
1,EFM19,> 10 µM
2,EVSAT,> 10 µM
3,HCC38,8.42 µM
4,HCC70,> 10 µM
5,HCC202,> 10 µM
6,HCC1143,8.83 µM
7,HCC1395,1.87 µM
8,HCC1419,> 10 µM
9,HCC1806,> 10 µM
10,HCC1937,> 10 µM
11,HS578T,8.91 µM
12,HTERT_HME1,> 10 µM
13,MCF7,> 10 µM

# Compound: CS(=O)(=O)N1CCN(Cc2cc3nc(-c4cccc5[nH]ncc45)nc(N4CCOCC4)c3s2)CC1 [Pictilisib/GDC0941]
row,Cell Line,"GR50, 72 h"
1,EFM19,0.23 µM
2,EVSAT,0.621 µM
3,HCC38,6.55 µM
4,HCC70,0.161 µM
5,HCC202,0.208 µM
6,HCC1143,0.978 µM
7,HCC1395,1.43 µM
8,HCC1419,0.172 µM
9,HCC1806,5.87 µM
10,HCC1937,2.42 µM
11,HS578T,1.16 µM
12,HTERT_HME1,2.8 µM
13,MCF7,0.13 µM

# Compound: CCNC(=O)c1noc(-c2cc(C(C)C)c(O)cc2O)c1-c1ccc(CN2CCOCC2)cc1 [Luminespib/NVP-AUY922]
row,Cell Line,"GR50, 72 h"
1,EFM19,0.021 µM
2,EVSAT,0.00716 µM
3,HCC38,0.00714 µM
4,HCC70,0.00765 µM
5,HCC202,0.0114 µM
6,HCC1143,0.00391 µM
7,HCC1395,0.005 µM
8,HCC1419,0.007 µM
9,HCC1806,0.0109 µM
10,HCC1937,0.0114 µM
11,HS578T,0.0033 µM
12,HTERT_HME1,0.00855 µM
13,MCF7,0.00871 µM

# Compound: Cc1nc(NC(=O)N2CCC[C@H]2C(N)=O)sc1-c1ccnc(C(C)(C)C(F)(F)F)c1 [Alpelisib/BYL719]
row,Cell Line,"GR50, 72 h"
1,EFM19,0.282 µM
2,EVSAT,> 10 µM
3,HCC38,> 10 µM
4,HCC70,4.51 µM
5,HCC202,0.465 µM
6,HCC1143,9.88 µM
7,HCC1395,> 10 µM
8,HCC1419,0.669 µM
9,HCC1806,> 10 µM
10,HCC1937,> 10 µM
11,HS578T,> 10 µM
12,HTERT_HME1,6.04 µM
13,MCF7,0.585 µM

# Compound: CC(=O)c1c(C)c2cnc(Nc3ccc(N4CCNCC4)cn3)nc2n(C2CCCC2)c1=O
row,Cell Line,"GR50, 72 h"
1,EFM19,0.525 µM
2,EVSAT,> 3.16 µM
3,HCC38,0.0597 µM
4,HCC70,> 3.16 µM
5,HCC202,> 3.16 µM
6,HCC1143,0.277 µM
7,HCC1395,0.0952 µM
8,HCC1419,0.462 µM
9,HCC1806,> 3.16 µM
10,HCC1937,> 3.16 µM
11,HS578T,0.156 µM
12,HTERT_HME1,0.222 µM
13,MCF7,0.075 µM

# Compound: CCc1cnn2c(NCc3ccc[n+]([O-])c3)cc(N3CCCC[C@H]3CCO)nc12
row,Cell Line,"GR50, 72 h"
1,EFM19,0.0283 µM
2,EVSAT,0.0263 µM
3,HCC38,0.0126 µM
4,HCC70,0.0129 µM
5,HCC202,0.0137 µM
6,HCC1143,0.0151 µM
7,HCC1395,0.0124 µM
8,HCC1419,0.0267 µM
9,HCC1806,0.0134 µM
10,HCC1937,0.0218 µM
11,HS578T,0.00894 µM
12,HTERT_HME1,0.0121 µM
13,MCF7,0.00831 µM

# Compound: CN(C)C/C=C/C(=O)Nc1ccc(C(=O)N2CCC[C@@H](Nc3ncc(Cl)c(-c4c[nH]c5ccccc45)n3)C2)cc1 [THZ531]
row,Cell Line,"GR50, 72 h"
1,EFM19,0.466 µM
2,EVSAT,0.124 µM
3,HCC38,0.177 µM
4,HCC70,0.0623 µM
5,HCC202,0.0588 µM
6,HCC1143,0.131 µM
7,HCC1395,0.0785 µM
8,HCC1419,0.162 µM
9,HCC1806,0.407 µM
10,HCC1937,0.26 µM
11,HS578T,0.0496 µM
12,HTERT_HME1,0.22 µM
13,MCF7,0.061 µM

# Compound: Nc1cc(C(F)(F)F)c(-c2cc(N3CCOCC3)nc(N3CCOCC3)n2)cn1 [Buparlisib/NVP-BKM120]
row,Cell Line,"GR50, 72 h"
1,EFM19,0.706 µM
2,EVSAT,1.04 µM
3,HCC38,1.27 µM
4,HCC70,0.437 µM
5,HCC202,0.431 µM
6,HCC1143,0.725 µM
7,HCC1395,0.93 µM
8,HCC1419,0.396 µM
9,HCC1806,1.05 µM
10,HCC1937,1.45 µM
11,HS578T,0.687 µM
12,HTERT_HME1,1.15 µM
13,MCF7,0.187 µM

# Compound: CC(=O)O[C@H]1C(=O)[C@@]2(C)[C@H]([C@H](OC(=O)c3ccccc3)[C@]3(O)C[C@H](OC(=O)[C@H](O)[C@@H](NC(=O)c4ccccc4)c4ccccc4)C(C)=C1C3(C)C)[C@]1(OC(C)=O)CO[C@@H]1C[C@@H]2O [Paclitaxel]
row,Cell Line,"GR50, 72 h"
1,EFM19,0.00438 µM
2,EVSAT,0.00167 µM
3,HCC38,0.00147 µM
4,HCC70,0.00134 µM
5,HCC202,0.00379 µM
6,HCC1143,0.00207 µM
7,HCC1395,0.00388 µM
8,HCC1419,0.00526 µM
9,HCC1806,0.00143 µM
10,HCC1937,0.00245 µM
11,HS578T,0.00102 µM
12,HTERT_HME1,0.00317 µM
13,MCF7,0.00138 µM

# Compound: CN(C)C/C=C/C(=O)NC1=CC=C(C=C1)C(=O)NC2=CC=CC(=C2)NC3=NC=NC(=C3)C4=CNC5=CC=CC=C54 [THZ-P1-2]
row,Cell Line,"GR50, 72 h"
1,EFM19,6.33 µM
2,EVSAT,> 10 µM
3,HCC38,4.23 µM
4,HCC70,3.18 µM
5,HCC202,6.48 µM
6,HCC1143,5.01 µM
7,HCC1395,2.89 µM
8,HCC1419,6.2 µM
9,HCC1806,4.69 µM
10,HCC1937,4.05 µM
11,HS578T,> 10 µM
12,HTERT_HME1,4.1 µM
13,MCF7,3.65 µM

# Compound: Cc1nc(-c2cn3c(n2)-c2ccc(-c4cnn(C(C)(C)C(N)=O)c4)cc2OCC3)n(C(C)C)n1 [Taselisib/GDC0032]
row,Cell Line,"GR50, 72 h"
1,EFM19,0.00333 µM
2,EVSAT,0.517 µM
3,HCC38,2.7 µM
4,HCC70,0.161 µM
5,HCC202,0.00366 µM
6,HCC1143,0.215 µM
7,HCC1395,2.14 µM
8,HCC1419,0.00918 µM
9,HCC1806,1.55 µM
10,HCC1937,1.23 µM
11,HS578T,0.575 µM
12,HTERT_HME1,0.148 µM
13,MCF7,0.00836 µM

# Compound: COc1cc2nccc(Oc3ccc(NC(=O)C4(C(=O)Nc5ccc(F)cc5)CC4)cc3)c2cc1OC [Cabozantinib]
row,Cell Line,"GR50, 72 h"
1,EFM19,> 10 µM
2,EVSAT,> 10 µM
3,HCC38,7.6 µM
4,HCC70,1.54 µM
5,HCC202,> 10 µM
6,HCC1143,> 10 µM
7,HCC1395,5.55 µM
8,HCC1419,> 10 µM
9,HCC1806,> 10 µM
10,HCC1937,> 10 µM
11,HS578T,6.38 µM
12,HTERT_HME1,3.24 µM
13,MCF7,4.82 µM

# Compound: CC(C)Nc1cc(-c2c[nH]c(C(=O)N[C@H](CO)c3cccc(Cl)c3)c2)c(Cl)cn1 [BVD523]
row,Cell Line,"GR50, 72 h"
1,EFM19,> 10 µM
2,EVSAT,> 10 µM
3,HCC38,4.75 µM
4,HCC70,1.11 µM
5,HCC202,> 10 µM
6,HCC1143,1.74 µM
7,HCC1395,1.72 µM
8,HCC1419,> 10 µM
9,HCC1806,> 10 µM
10,HCC1937,> 10 µM
11,HS578T,1.14 µM
12,HTERT_HME1,0.213 µM
13,MCF7,3.8 µM

# Compound: C=CCn1c(=O)c2cnc(Nc3ccc(N4CCN(C)CC4)cc3)nc2n1-c1cccc(C(C)(C)O)n1 [AZD1775]
row,Cell Line,"GR50, 72 h"
1,EFM19,3.9 µM
2,EVSAT,3.96 µM
3,HCC38,0.00378 µM
4,HCC70,< 0.001 µM
5,HCC202,0.051 µM
6,HCC1143,0.703 µM
7,HCC1395,0.00604 µM
8,HCC1419,2.59 µM
9,HCC1806,0.0128 µM
10,HCC1937,0.00892 µM
11,HS578T,0.0155 µM
12,HTERT_HME1,0.302 µM
13,MCF7,0.0111 µM
